# Tests used:
# [1] = target: mu/delta opioid receptors (Mus musculus, UniProt P32300+P42866); conditions: Mu/delta cells
# mu opioid receptor = target: T1, mu opioid receptor (Mus musculus, UniProt P42866); experiment: Ca2+ release, HEK-293 mu cells; type: cell-based, murine
# T1 construct: expressed in transfected cells
# [2] = target: T2, mu/kappa opioid heterodimers (Mus musculus, UniProt P33534+P42866); type: cell-based, murine
# T2 construct: expressed in transfected cells
# mice [3] = experiment: Radiant heat tail flick antinociception; type: in vivo, mouse
# mice [4] = conditions: chronic i.c.v. morphine; cited from earlier work
# mice [5] = conditions: i.c.v. morphine-infused mice; cited from earlier work
# mice [6] = experiment: Conditioned place preference (CPP)
# [7] = target: kappa/delta opioid receptors (Mus musculus, UniProt P32300+P33534)
# Chain of kappa/delta opioid receptors (P33534 whole entry): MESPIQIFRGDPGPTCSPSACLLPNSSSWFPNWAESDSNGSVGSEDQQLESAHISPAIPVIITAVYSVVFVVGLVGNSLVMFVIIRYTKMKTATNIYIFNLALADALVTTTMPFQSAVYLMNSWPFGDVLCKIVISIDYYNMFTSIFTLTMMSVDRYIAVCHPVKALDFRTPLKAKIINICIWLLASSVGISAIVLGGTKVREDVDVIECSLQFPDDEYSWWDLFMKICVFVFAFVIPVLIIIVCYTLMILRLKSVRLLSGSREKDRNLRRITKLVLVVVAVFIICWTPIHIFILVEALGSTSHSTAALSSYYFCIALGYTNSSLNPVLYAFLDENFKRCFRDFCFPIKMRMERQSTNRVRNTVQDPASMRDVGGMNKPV
# Chain of kappa/delta opioid receptors (P32300 whole entry): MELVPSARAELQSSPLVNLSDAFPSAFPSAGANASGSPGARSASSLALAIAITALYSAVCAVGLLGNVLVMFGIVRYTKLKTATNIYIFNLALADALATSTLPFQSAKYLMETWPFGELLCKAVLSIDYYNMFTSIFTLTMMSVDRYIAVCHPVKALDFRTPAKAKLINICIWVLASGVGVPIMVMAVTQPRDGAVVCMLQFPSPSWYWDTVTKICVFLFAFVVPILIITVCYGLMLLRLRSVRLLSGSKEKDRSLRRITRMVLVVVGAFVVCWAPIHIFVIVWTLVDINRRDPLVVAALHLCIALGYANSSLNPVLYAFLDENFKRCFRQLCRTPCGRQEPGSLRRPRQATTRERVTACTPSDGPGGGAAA
# delta opioid receptor = delta opioid receptor (Mus musculus, UniProt P32300); conditions: Delta cells
# Chain of delta opioid receptor (P32300 whole entry): as above
# Chain of mu/delta opioid receptors (P32300 whole entry): as above
# Chain of mu/delta opioid receptors (P42866 whole entry): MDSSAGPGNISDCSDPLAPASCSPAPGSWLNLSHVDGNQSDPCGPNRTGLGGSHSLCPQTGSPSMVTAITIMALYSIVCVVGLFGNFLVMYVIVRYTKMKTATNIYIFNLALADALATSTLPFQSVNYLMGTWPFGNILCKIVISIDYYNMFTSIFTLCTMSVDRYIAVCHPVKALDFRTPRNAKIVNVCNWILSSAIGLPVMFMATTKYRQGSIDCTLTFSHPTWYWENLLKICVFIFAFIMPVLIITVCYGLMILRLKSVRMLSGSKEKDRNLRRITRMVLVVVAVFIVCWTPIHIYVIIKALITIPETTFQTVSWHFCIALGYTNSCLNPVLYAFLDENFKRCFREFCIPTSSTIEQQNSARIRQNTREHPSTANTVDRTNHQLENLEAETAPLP
# T1 sequence (P42866 whole entry): as above
# T2 sequence (P42866 whole entry): as above
# T2 sequence (P33534 whole entry): as the sequence (P33534 whole entry) above
compound,measurement,setting,value
"C[C@@H](NC(=O)[C@@H](N)Cc1ccc(O)cc1)C(=O)NCC(=O)N(C)[C@@H](Cc1ccccc1)C(=O)NCCO [DAMGO, reference compound]","AUCpeak (RFU X seconds), Ca2+ release",[1],12054 ± 1281 RFU X seconds
same,"AUCpeak (RFU X seconds), Ca2+ release",mu opioid receptor,9989 ± 702 RFU X seconds
same,"AUCpeak (RFU X seconds), Ca2+ release",[2],5562 ± 668
"Oc1ccc2c3c1O[C@H]1c4[nH]c5ccccc5c4C[C@@]4(O)[C@@H](C2)N(CC2CC2)CC[C@]314 [NTI, naltrindole, reference compound]",peak time of antagonist effect,mice [3],20 min
"CN1CC[C@]23c4c5ccc(O)c4O[C@H]2[C@@H](O)C=C[C@H]3[C@H]1C5 [morphine, reference compound]","development of tolerance, previous studies, same protocol",mice [4],6 fold
same,"naloxone-induced withdrawal jumping, previous studies",mice [5],100 jumps in 10 min
same,place preference,mice [6]; 1200 nmol/kg,strong place preference
same,place preference with naloxone,mice [6]; morphine 1200 nmol/kg plus naloxone 300 nmol/kg,can be blocked by naloxone
same,time of peak antinociception,"mice [3]; i.v., preliminary studies, ICR mice",15 min
same,ED50 (95% CI),"mice [3]; i.v., tail flick",420 (378-469) nmol
"Oc1ccc2c3c1O[C@H]1c4[nH]c5c(c4C[C@@]4(O)[C@@H](C2)N(CC2CC2)CC[C@]314)C[C@@]1(O)[C@H]2Cc3ccc(O)c4c3[C@@]1(CCN2CC1CC1)[C@H]5O4 [norBNI, norbinaltorphimine, reference compound]",peak time of antagonist effect,mice [3],20 min
"Cys2-Tyr3-Orn5-Pen7-amide [CTOP, reference compound]",peak time of antagonist effect,mice [3],20 min
DPDPE,"AUCpeak (RFU X seconds), Ca2+ release",[7],10153 ± 1479
same,"AUCpeak (RFU X seconds), Ca2+ release",[1],10504 ± 969 RFU X seconds
same,"AUCpeak (RFU X seconds), Ca2+ release",delta opioid receptor,8319 ± 1117 RFU X seconds

# From patent US8609682B2 (priority 2008, dated 2013)
